Molecular target: Cathepsin D (Homo sapiens, UniProt P07339)
Assay: Enzyme Inhibition Measurements
Details: 25 °C

Sequence of Cathepsin D (P07339 65-162 limits assumed): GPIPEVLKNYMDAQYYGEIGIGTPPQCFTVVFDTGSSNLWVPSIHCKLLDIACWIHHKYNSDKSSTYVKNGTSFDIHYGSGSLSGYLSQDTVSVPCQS
Sequence of Cathepsin D (P07339 169-412 limits assumed): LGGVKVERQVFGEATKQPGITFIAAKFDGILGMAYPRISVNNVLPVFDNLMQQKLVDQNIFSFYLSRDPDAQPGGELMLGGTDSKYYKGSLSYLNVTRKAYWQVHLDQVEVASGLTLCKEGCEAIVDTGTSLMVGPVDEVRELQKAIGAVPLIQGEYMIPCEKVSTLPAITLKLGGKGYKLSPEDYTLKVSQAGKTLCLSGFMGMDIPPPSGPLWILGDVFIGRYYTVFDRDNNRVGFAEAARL

- IC50: 280 nM
Compound: CCCCNC(=O)[C@@H](NC(=O)[C@@H]1OCC[C@H]1[C@H](O)[C@H](CC(C)C)NC(=O)[C@H](CCSC)NC(=O)[C@H](CC(C)C)NC(C)=O)C(C)C [(2S)-N-[(1S)-1-{[(1S,2S)-1-[(2R,3S)-2-{[(1S)-1-(butylcarbamoyl)-2-methylpropyl]carbamoyl}oxolan-3-yl]-1-hydroxy-4-methylpentan-2-yl]carbamoyl}-3-(methylsulfanyl)propyl]-2-acetamido-4-methylpentanamide]

Reference: BindingDB's records for doi:10.1021/jm050142+ (Universite De Montreal At Succursale Centre-Ville, 2005)
